Results: article PMC12406255, “Engineering Peptide Modulators for T‑Cell Migration by Structural Scaffold Matching” (Journal of Medicinal Chemistry, 2025)
Positions of bridges follow the written chain, without caps; N, C: chain ends. Non-standard residues stand in square brackets, D forms with d. Residues, ends and D or L forms follow the SMILES beside them. Nle = CCCC[C@H](N)C(=O)O

Test system: CD3+ lymphocytes
Assay: cells
Assay type: cell-based, human
Conditions: for % Inhibition of cell migration compared to control, CD3+: normalized to untreated control, mean ± SEM of 4-6 experiments

CCCC[C@@H]1NC(=O)[C@H](C(C)C)NC(=O)[C@H](CCCCN)NC(=O)[C@@H](NC(=O)[C@H](CCC(N)=O)NC(=O)[C@H](CCC(=O)O)NC(C)=O)CSSC[C@@H](C(=O)N[C@@H](CCC(=O)O)C(=O)N[C@@H](CCCCN)C(N)=O)NC(=O)[C@H](CC(N)=O)NC(=O)[C@H](CC(=O)O)NC(=O)[C@H](CC(C)C)NC(=O)[C@@H]2CSSC[C@H](NC1=O)C(=O)N[C@@H](Cc1ccc(O)cc1)C(=O)N[C@@H](C)C(=O)N[C@@H](CCC(N)=O)C(=O)NCC(=O)N[C@@H](C)C(=O)N[C@@H](CCC(=O)O)C(=O)N[C@@H](CC(C)C)C(=O)N1CCC[C@H]1C(=O)N[C@@H](CCC(=O)O)C(=O)N[C@@H](CC(C)C)C(=O)N[C@@H](CC(C)C)C(=O)N[C@@H](CCCNC(=N)N)C(=O)N[C@@H](CCCNC(=N)N)C(=O)N2 [VhTI-pep 2] (Ac-EQCKV[Nle]CYAQGAELPELLRRCLDNCEK-NH2; disulfide 3-25, 7-21)
% Inhibition of cell migration compared to control, CD3+ (0.1 μM): 28.7 ± 6.4%
% Inhibition of cell migration compared to control, CD3+ (1 μM): 37.2 ± 6.8%
EC50 (EC monolayer preincubated with peptide 15-30 min, healthy-donor PBMC added, 4 h migration, flow cytometry, mean ± SD of 3 to 5 (VhTI-pep 2: 4) independent experiments, read-out: EC50, inhibition of CD3+ lymphocyte migration): 10.6 ± 16.5 nM
maximal effect of inhibition of cell migration, CD3+ lymphocytes (from the concentration-response experiment): 39.3 ± 8.7%
